Laboratory results reported in US11021481B2, “Substituted isoindolin-1-ones and 2,3-dihydro-1h-pyrrolo[3,4-c]pyridin-1-ones as HPK1 antagonists” (Nimbus Saturn, Inc., priority 2019, dated 2021).
pIC50: −log10 of the molar value.

Each compound was assayed against HPK1 (Homo sapiens (Human), UniProt Q92918) (assay: HPK1 biochemical enzyme assay (microfluidic mobility shift assay)). Details: 1.5 nM HPK1, ATP 1 mM final, 30 min preincubation, 60 min at RT, Caliper EZ Reader; read-out: HPK1 1000UMATP caliper IC50.
Sequence of HPK1 (Q92918 whole entry): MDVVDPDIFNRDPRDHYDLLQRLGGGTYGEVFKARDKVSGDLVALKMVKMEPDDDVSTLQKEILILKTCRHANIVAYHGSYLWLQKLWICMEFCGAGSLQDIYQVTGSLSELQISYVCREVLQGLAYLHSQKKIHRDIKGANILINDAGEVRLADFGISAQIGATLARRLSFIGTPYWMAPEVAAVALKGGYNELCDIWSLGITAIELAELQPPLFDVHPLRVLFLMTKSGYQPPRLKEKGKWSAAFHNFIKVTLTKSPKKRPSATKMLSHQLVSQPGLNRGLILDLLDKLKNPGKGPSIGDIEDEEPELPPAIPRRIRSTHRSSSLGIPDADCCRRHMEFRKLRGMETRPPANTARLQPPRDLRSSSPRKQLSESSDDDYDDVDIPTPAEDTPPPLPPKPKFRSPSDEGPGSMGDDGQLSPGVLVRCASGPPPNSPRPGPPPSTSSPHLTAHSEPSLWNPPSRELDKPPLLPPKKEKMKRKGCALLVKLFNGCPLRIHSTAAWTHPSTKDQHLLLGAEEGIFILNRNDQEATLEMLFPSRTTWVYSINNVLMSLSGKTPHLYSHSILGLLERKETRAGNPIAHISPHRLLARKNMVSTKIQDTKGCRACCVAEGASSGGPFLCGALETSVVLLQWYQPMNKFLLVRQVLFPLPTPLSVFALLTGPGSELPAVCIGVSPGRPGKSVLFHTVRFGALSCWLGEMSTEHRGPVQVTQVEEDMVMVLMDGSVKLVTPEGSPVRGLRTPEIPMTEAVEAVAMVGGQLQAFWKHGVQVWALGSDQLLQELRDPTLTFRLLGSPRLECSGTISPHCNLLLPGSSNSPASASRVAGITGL
Summary of the method: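 Mobility shift readout of HPK1 activity after a 60 min RT reaction with 1 mM ATP, 1 μM substrate and 5 mM MgCl2. Enzyme/substrate mix was first exposed to compounds for 30 min, using ten-point curves topping at 3 μM final.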
In the case of `COc1c(F)ccn2c(-c3ccc(Nc4ccc(N5CCC(O)CC5)cn4)c4c3CNC4=O)cnc12` [I-242, 4-(7-fluoro-8-methoxy-imidazo[1,2-a]pyridin-3-yl)-7-[[5-(4-hydroxy-1-piperidyl)-2-pyridyl]amino] isoindolin-1-one], the pIC50 was over 7.00. In the case of `CN(C)CC1COCCN1c1ccc(Nc2ccc(-c3cnc4cc(F)ccn34)c3c2C(=O)NC3)nc1` (centres unmarked) [I-517, 7-[ [5-[3-[(dimethylamino)-methyl]mor-pholin-4-yl]-2-pyridyl]amino]-4-(7-fluoroimidazo [1,2-a]pyridin-3-yl)isoindolin-1-one], the pIC50 was over 7.00. For `O=C1NCc2c(-c3cnc4cnccn34)ccc(Nc3ccc(N4CCC[C@H](O)CC4)cn3)c21` [I-328, (S)-7-((5-(4-hydroxyazepan-1-yl)pyridin-2-yl)amino)-4-(imidazo[1,2-a]pyrazin-3-yl)isoindolin-1-one], the pIC50 was over 7.00. Work on `Cc1cc2c(-c3ccc(Nc4ccc(N5CCN(C)CC5)cn4)c4c3CNC4=O)ccnc2[nH]1` [I-38, 7-[[5-(4-methylpiperazin-1-yl)-2-pyridyl]amino]-4-(2-methyl-1H-pyrrolo[2,3-b]pyridin-4-yl)isoindolin-1-one] yielded a pIC50 of over 7.00. In the case of `O=C1NCc2c(-c3cnc4n3CCCC4)ccc(Nc3ccc(N4CCNCC4)cn3)c21` [I-80, 7-[(5-piperazin-1-yl-2-pyridyl)amino]-4-(5,6,7,8-tetrahydro-imidazo[1,2-a]pyridin-3-yl)isoindolin-1-one], the pIC50 was over 7.00. `CN(C)Cc1nc(Nc2ccc(-c3cnc4cc(F)ccn34)c3c2C(=O)NC3)ccc1C1(F)CCOCC1` [I-834, 7-((6-((dimethylamino)-methyl)-5-(4-fluorotetrahy-dro-2H-pyran-4-yl)pyridin-2-yl)amino)-4-(7-fluoroimidazo [1,2-a]pyridin-3-yl)isoindolin-1-one] gave a pIC50 of over 7.00. `CN1CCN(c2cccc(Nc3cnc(-c4ccnc5c4ccn5C)c4c3C(=O)NC4)n2)CC1` [I-327, 4-(1-methyl-1H-pyrrolo[2,3-b]pyridin-4-yl)-7-((6-(4-methylpiperazin-1-yl)pyridin-2-yl)amino)-2,3-dihydro-1H-pyrrolo[3,4-c]pyridin-1-one] gave a pIC50 of over 7.00. Compound `O=C1NCc2c(-c3cnc4cc(F)ccn34)ccc(Nc3ccc(N4CCC[C@@H](O)C4)cn3)c21` [I-174, 4-(7-fluoroimidazo [1,2-a]pyridin-3-yl)-7-[[5-[(3R)-3-hydroxy-1-piperipyl]-2-pyripyl]amino] isoindolin-1-one] has a pIC50 of over 7.00. `O=C1NCc2c(-c3cnn4c3CCCC4)ncc(Nc3ccc(N4CCOCC4)cn3)c21` [I-367, 7-((5-morpholinopyridin-2-yl)amino)-4-(4,5,6,7-tetrahdropyra-zolo[1,5-a]pyridin-3-yl)-2,3-dihydro-1H-pyrrolo[3,4-c]pyridin-1-one] was tested, and the pIC50 was over 7.00. In the case of `Cn1ccc2c(-c3ncc(Nc4cncc(N5CC[C@H]6CNC[C@H]65)n4)c4c3CNC4=O)ccnc21` (single isomer, unassigned) [I-660], the pIC50 was over 7.00. For `CO[C@@H]1CCN(Cc2nc(Nc3ccc(-c4cnc5cc(F)ccn45)c4c3C(=O)NC4)ccc2[C@H]2CCOC2)C1` [I-780, 4-(7-fluoroimidazo [1,2-a]pyridin-3-yl)-7((6-(((R)-3-methoxypyrrol-idin-1-yl)methyl)-5-((R)-tetraliydrofiiran-3-yl)pyridin-2-yl)amino)isoin-dolin-1-one], the pIC50 was over 7.00. Compound `Cn1ccc2c(-c3ncc(Nc4ccc([C@H]5CCOC5)c(CN)n4)c4c3CNC4=O)ccnc21` [I-829, (R)-7-((6-(aminomethyl)-5-(THF-3-yl)pyridin-2-yl)amino)-4-(1-methyl-1H-pyrrolo[2,3-b]pyridin-4-yl)-2,3-dihydro-1H-pyrrolo[3,4-c]pyridin-1-one] has a pIC50 of over 7.00. Compound `O=C1NCc2c(-c3c[nH]c4ccccc34)ncc(Nc3ccc(N4CCNCC4)cn3)c21` [I-1, 4-(1H-indol-3-yl)-7-[(5-piperazin-1-yl-2-pyridyl)amino]-2,3-dihydropyrrolo [3,4-c]pyridin-1-one] has a pIC50 of 6.00 to 7.00. `COC[C@@H]1CN(c2ccc(Nc3cnc(-c4ccnc5c4ccn5C)c4c3C(=O)NC4)nc2CN(C)C)CCO1` [I-797, (S)-7-((6-((dimethylamino)-methyl)-5-(2-(methoxymeth-yl)morpholino)-pyridin-2-yl)amino)-4-(1-methyl-1H-pyrrolo[2,3-b]pyridin-4-yl)-2,3-dihydro-1H-pyrrolo[3,4-c)pyridin-1-one] was tested, and the pIC50 was over 7.00. For `CN(C)C[C@@]1(O)CCCN(c2ccc(Nc3ccc(-c4cnc5cc(F)ccn45)c4c3C(=O)NC4)nc2)C1` [I-568, (S)-7-((5-(3-((dimethylamino)-methyl)-3-hydroxypiperidin-1-yl)pyridin-2-yl)amino)-4-(7-fluoroimidazo [1,2-a]pyridin-3-yl)isoindolin-1-one], the pIC50 was over 7.00. `Cc1[nH]c2ccccc2c1-c1ncc(Nc2ccc(N3CCN(C)CC3)cn2)c2c1CNC2=O` [I-11, 4-(2-methyl-1H-indol-3-yl)-7-[[5-(4-methylpiperazin-1-yl)-2-pyridyl]amino]-2,3-dihydropyrrolo [3,4-c]pyridin-1-one] showed a pIC50 of 6.00 to 7.00. For `O=C1NCc2c(-c3cnc4cc(F)ccn34)ccc(Nc3ccc([C@@H]4CCOC4)cn3)c21` [I-222, (S)-4-(7-fluoroimidazo [1,2-a]pyridin-3-yl)-7-((5-(tetrahydro-furan-3-yl)pyridin-2-yl)amino)isoin-dolin-1-one], the pIC50 was over 7.00. `CN1CCc2cc(Nc3ccc(-c4ccnc5c4ccn5C)c4c3C(=O)NC4)nn2CC1=O` [I-294, 6-methyl-2-((7-(1-methyl-1H-pyrrolo[2,3-b]pyridin-4-yl)-3-oxoisoindolin-4-yl)amino)-5.6-dihydro-4H-pyrazolo[1,5-d][l,4]diaze-pin-7(8H)-one] was tested, and the pIC50 was over 7.00. Work on `COc1ccc2c(-c3ccc(Nc4ccc(N5CCN(C)CC5)cn4)c4c3CNC4=O)c[nH]c2c1` [I-28, 4-(6-methoxy-1H-indol-3-yl)-7-[[5-(4-methylpiperazin-1-yl)-2-pyridyl]amino] isoindolin-1-one] yielded a pIC50 of over 7.00. `COCC1(c2ccc(Nc3ccc(-c4cnc5cc(F)ccn45)c4c3C(=O)NC4)nc2CN(C)C)CCOC1` (centres unmarked) [I-837, 7-((6-((dimethylamino)methyl)-5-(3-(methoxymethyl)tetrahydrofuran-3-yl)pyridin-2-yl)amino)-4-(7-fluoroimidazo[1,2-a]pyridin-3-yl)isoindolin-1-one] showed a pIC50 of over 7.00. For `CN[C@@H]1CCCN(c2cccc(Nc3cnc(-c4ccnc5c4ccn5C)c4c3C(=O)NC4)n2)C1` [I-239, 7-[[6-[(3R)-3-(methylamino)-1-piperidyl]-2-pyridyl]-amino]-4-(1-methylpyrrolo [2,3-b]pyridin-4-yl)-2,3-dihydropyrrolo [3,4-c]pyridin-1-one], the pIC50 was 6.00 to 7.00. With `Cn1ccc2c(-c3ccc(Nc4ccc(N5CCOCC5)cn4)c4c3CNC4=O)ccnc21` [I-110, 4-(1-methylpyrrolo [2,3-b]pyridin-4-yl)-7-[(5-morpholino-2-pyridyl)amino] isoindolin-1-one] the pIC50 was over 7.00. `CN1CCN(Cc2ccc(Nc3ccc(-c4cnc5c(F)c(C(F)F)ccn45)c4c3C(=O)NC4)nc2)C(C)(C)C1` [I-672, 4-(7-(difluorometh-yl)-8-fluoroimidazo [1,2-a]pyridin-3-yl)-7-((5-((2.2.4-trimethylpiper-azin-1-yl)methyl)pyri-din-2-yl)amino)isoin-dolin-1-one] showed a pIC50 of over 7.00. In the case of `COCC1CN(c2ccc(Nc3ccc(-c4cnc5cnccn45)c4c3C(=O)NC4)nc2)CCO1` (stereo in doubt) [I-334, (R)-4-(imidazo[1,2-a]pyrazin-3-yl)-7-((5-(2-(methoxymeth-yl)morpholino)-pyridin-2-yl)amino)isoin-dolin-1-one], the pIC50 was over 7.00. Work on `O=C1NCc2c(-c3cnc4cc(F)ccn34)ccc(Nc3ccc(N4CCO[C@H](CNC5CC5)C4)cn3)c21` [I-477, 7-[[5-[(2R)-2-[(cyclopropylamino)methyl]morpholin-4-yl]-2-pyridyl]amino]-4-(7-fluoroimidazo [1,2-a]pyridin-3-yl)isoindolin-1-one] yielded a pIC50 of over 7.00. `CN1CC(c2ccn3c(-c4ccc(Nc5ccc(N6CCC(O)CC6)cn5)c5c4CNC5=O)cnc3c2)C1` [I-411, 7-((5-(4-hydroxy-piperidin-1-yl)pyridin-2-yl)amino)-4-(7-(1-methylazetidin-3-yl)imidazo[1,2-a]pyridin-3-yl)isoindolin-1-one] was tested, and the pIC50 was over 7.00. Work on `Cc1ccn2c(-c3ccc(Nc4ccc(N5CCC[C@@H](C(C)(C)O)C5)cn4)c4c3CNC4=O)cnc2n1` [I-233, 7-[[5-[(3R)-3-(1-hydroxy-1-methyl-ethyl)-1-piperidyl)-2-pyridyl)-amino]-4-(7-methylimidazo [1,2-a]pyrimidin-3-yl]isoindolin-1-one] yielded a pIC50 of over 7.00. In the case of `O=C1NCc2c(-c3cnc4cc(F)ccn34)ccc(Nc3ccc(N4CCC(CO)CC4)cn3)c21` [I-204, 4-(7-fluoroimidazo [1,2-a]pyridin-3-yl)-7-[[5-[4-(hydroxymeth-yl]-1-piperipyl]-2-pyripyl]-amino]isoin-dolin-1-one], the pIC50 was over 7.00. Work on `Cn1ccc2c(-c3ncc(Nc4ccc(N5CCO[C@H](C(C)(C)O)C5)cn4)c4c3CNC4=O)ccnc21` [I-471, 7-[[5-[(2S)-2-(1-hydroxy-1-methyl-ethyl)morpholin-4-yl]-2-pyridyl]amino]-4-(1-methylpyrrolo [2,3-b]pyridin-4-yl)-2,3-dihydropyrrolo [3,4-c]pyridin-1-one] yielded a pIC50 of over 7.00. `CC1(N2CCOCC2)CCN(c2ccc(Nc3ccc(-c4cnc5cc(F)ccn45)c4c3C(=O)NC4)nc2)CC1` [I-429, 4-(7-fluoroimidazo [1,2-a]pyridin-3-yl)-7-((5-(4-methyl-4-morpholinopip-eridin-1-yl)pyridin-2-yl)amino)isoin-dolin-1-one] gave a pIC50 of over 7.00. In the case of `Cn1cc2ncc(-c3ccc(Nc4ccc(N5CCC(O)CC5)cn4)c4c3CNC4=O)c-2cn1` [I-448, 7-((5-(4-hydroxy-piperidin-1-yl)pyridin-2-yl)amino)-4-(6-methyl-6H-pyrrolo[2,3-d]pyridazin-3-yl)isoindolin-1-one], the pIC50 was 6.00 to 7.00. `Cn1ccc2c(-c3ccc(Nc4ccc(CS(C)(=O)=O)cn4)c4c3CNC4=O)ccnc21` [I-293, 4-(1-methyl-1H-pyrrolo[2,3-b]pyridin-4-yl)-7-((5-((methylsulfonyl)methyl)pyridin-2-yl)amino)isoindolin-1-one] was tested, and the pIC50 was over 7.00.
